# Experiments:
# p38α = biological target: T1, p38α (Homo sapiens, UniProt Q16539); assay: p38 MAP Kinase assay: inhibition of ATF2 phosphorylation, ELISA; assay type: biochemical; details: ATF2 phosphorylation; read-out: [ENZ] P38 ALPHA, IC50, ELISA
# T1 construct: p38 MAP Kinases are recombinant human full-length proteins with an amino-terminal GST fusion; GST (N); purchased Upstate Biotechnology Inc; host or cells: E. coli
# In short: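 In vitro phosphorylation of ATF2 at Thr69 by recombinant human GST-p38 MAP kinase, read by anti-phospho-ATF2 ELISA at 450 nm. Enzyme and compound pre-incubated 15 min at RT, then 30 min reaction at 37 °C with 40 μM ATP and 1.25 μM ATF2; buffer with or without 1% HSA (Method II or I).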
# [1] = test system: TNFα release from THP-1 cells; assay: Inhibition of TNFα release from LPS-stimulated THP-1 cells, ELISA; assay type: cell-based; details: Homo sapiens, THP-1, THP-1 cells, read-out: [CELL] THP-1, IC50, TNF ALPHA, ELISA
# In short: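 TNFα released into supernatant after 18 h of 10 μg/ml LPS stimulation was quantified by ELISA and IC50 taken as 50% reduction by non-linear regression. THP-1 cells (10^6/ml; medium with 10% FBS, serum-free or 1% HSA) saw compound for 30 min at 37 °C beforehand; final DMSO ≤0.5%.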
# T1 sequence (Q16539 whole entry, the tested form may be a part): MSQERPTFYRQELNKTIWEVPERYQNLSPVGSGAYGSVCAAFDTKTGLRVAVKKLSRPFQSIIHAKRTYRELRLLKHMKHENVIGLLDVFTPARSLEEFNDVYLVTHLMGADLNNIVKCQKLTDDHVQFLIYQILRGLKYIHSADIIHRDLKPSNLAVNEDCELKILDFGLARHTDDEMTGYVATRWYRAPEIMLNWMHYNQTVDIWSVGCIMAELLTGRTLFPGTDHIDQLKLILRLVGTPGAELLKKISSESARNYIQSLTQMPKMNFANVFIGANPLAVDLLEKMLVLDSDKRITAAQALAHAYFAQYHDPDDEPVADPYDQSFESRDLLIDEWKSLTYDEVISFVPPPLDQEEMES
Compound,IC50 (p38α),IC50 [1],melting point
"O=C(Nc1ccc(OCc2ccncc2)c2ccccc12)c1cc(F)cc(OC2CCOCC2)c1 [Compound B229, 3-Fluoro-N-[4-(pyridin-4-ylmethoxy)-1-naphthyl]-5-(tetrahydro-2H-pyran-4-yloxy)benzamide]",0.821 µM,5.66 µM,182 to 184 °C
"CC(C)(C)OC(=O)N1CCN(c2nccc(Oc3ccc(NC(=O)c4cc(F)cc(N5CCOCC5)c4)c4ccccc34)n2)CC1 [Compound B340, t-Butyl-4-[4-({4-[(3-fluoro-5-morpholin-4-ylbenzoyl)amino]-1-naphthyl}oxy)pyrimidin-2-yl]piperazine-1-carboxylate]",0.0559 µM,> 1 µM,131 to 133 °C
"CC1CCN(c2cc(F)cc(C(=O)Nc3ccc(OCc4n[nH]c(=O)n4-c4ccccc4)c4ccccc34)c2)CC1 [Compound B263, 3-Fluoro-5-(4-methyl-piperidin-1-yl)-N-[4-(5-oxo-4-phenyl-4,5-dihydro-1H-[1,2,4]triazol-3-ylmethoxy)-naphthalen-1-yl]-benzamide]",5.08 µM,4.26 µM,140 to 143 °C
"CC(C)(C)OC(=O)N1CCN(c2nccc(Oc3ccc(NC(=O)c4cc(F)cc(N5CCCCC5)c4)c4ccccc34)n2)CC1 [Compound B397, tert-Butyl-4-[4-({4-[(3-fluoro-5-piperidin-1-ylbenzoyl)amino]-1-naphthyl}oxy)pyrimidin-2-yl]piperazine-1-carboxylate]",0.109 µM,> 1 µM,175 to 177 °C
"O=C(Nc1ccc(OCCN2CCOCC2)c2ccccc12)c1cc(F)cc(OC2CCCC2)c1 [Compound B225, 3-(Cyclopentyloxy)-5-fluoro-N-[4-(2-morpholin-4-ylethoxy)-1-naphthyl]benzamide]",0.439 µM,4.09 µM,117 to 119 °C
"CC(C)CN(C)c1cc(F)cc(C(=O)Nc2ccc(OCCN3CCOCC3)c3ccccc23)c1 [Compound B210, 3-Fluoro-5-[isobutyl(methyl)amino]-N-[4-(2-morpholin-4-ylethoxy)-1-naphthyl]benzamide]",1.3 µM,> 10 µM,126 to 128 °C
"C#CCN(C)c1nccc(Oc2ccc(NC(=O)c3cc(F)cc(N4CCCCC4)c3)c3ccccc23)n1 [Compound B407, 3-Fluoro-N-[4-({2-[methyl(prop-2-yn-1-yl)amino]pyrimidin-4-yl}oxy)-1-naphthyl]-5-piperidin-1-ylbenzamide]",0.0561 µM,0.7 µM,116 to 117 °C
"O=C(Nc1ccc(OCCCc2cccnc2)c2ccccc12)c1cc(F)cc(N2CCOCC2)c1 [Compound B222, 3-Fluoro-5-morpholin-4-yl-N-[4-(3-pyridin-3-ylpropoxy)-1-naphthyl]benzamide]",0.82 µM,9.38 µM,64 to 66 °C
"CN(Cc1ccco1)c1nccc(Oc2ccc(NC(=O)c3cc(F)cc(N4CCCCC4)c3)c3ccccc23)n1 [Compound B418, 3-Fluoro-N-[4-({2-[(2-furylmethyl)(methyl)amino]pyrimidin-4-yl}oxy)-1-naphthyl]-5-piperidin-1-ylbenzamide]",0.102 µM,0.538 µM,155 to 156 °C
"CC1CCCN1c1nccc(Oc2ccc(NC(=O)c3cc(F)cc(N4CCCCC4)c3)c3ccccc23)n1 (stereo not drawn) [Compound B404, 3-Fluoro-N-(4-{[2-(2-methylpyrrolidin-1-yl)pyrimidin-4-yl]oxy}-1-naphthyl)-5-piperidin-1-ylbenzamide]",0.151 µM,1.12 µM,93 to 94 °C
"CSc1nccc(Oc2ccc(NC(=O)c3cc(F)cc(N4CCOCC4)c3)c3ccccc23)n1 [Compound B246, 3-Fluoro-N-(4-{[2-(methylthio)pyrimidin-4-yl]oxy}-1-naphthyl)-5-morpholin-4-ylbenzamide]",0.0402 µM,0.0694 µM,189 to 190 °C
"CN(CC1OCCO1)c1nccc(Oc2ccc(NC(=O)c3cc(F)cc(N4CCCCC4)c3)c3ccccc23)n1 [Compound B395, N-[4-({2-[(1,3-Dioxolan-2-ylmethyl)(methyl)amino]pyrimidin-4-yl}oxy)-1-naphthyl]-3-fluoro-5-piperidin-1-ylbenzamide]",0.0313 µM,0.212 µM,125 to 127 °C
"O=C(Nc1ccc(Oc2ccnc(N3CCC(O)C3)n2)c2ccccc12)c1cc(F)cc(N2CCOCC2)c1 (stereo not drawn) [Compound B339, 3-Fluoro-N-(4-{[2-(3-hydroxypyrrolidin-1-yl)pyrimidin-4-yl]oxy}-1-naphthyl)-5-morpholin-4-ylbenzamide]",0.0391 µM,0.347 µM,137 to 139 °C
"CC(C)(C)Oc1cccc(C(=O)Nc2ccc(OCCN3CCOCC3)c3ccccc23)c1 [Compound B65, 3-tert-Butoxy-N-[4-(2-morpholin-4-yl-ethoxy)-naphthalen-1-yl]-benzamide]",0.614 µM,3.42 µM,50 to 51 °C

# Compounds with a lower IC50 (p38α), results first:
IC50 (p38α),IC50 [1],melting point,Compound
0.0289 µM,0.581 µM,81 to 82 °C,"COCCN(C)c1nccc(Oc2ccc(NC(=O)c3cc(F)cc(N4CCCCC4)c3)c3ccccc23)n1 [Compound B414, 3-Fluoro-N-[4-({2-[(2-methoxyethyl)(methyl)amino]pyrimidin-4-yl}oxy)-1-naphthyl]-5-piperidin-1-ylbenzamide]"
0.019 µM,> 1 µM,190 to 191 °C,"O=C(Nc1ccc(Oc2ccnc(N3CCCCC3)n2)c2ccccc12)c1cc(F)cc(N2CCOCC2)c1 [Compound B324, 3-Fluoro-5-morpholin-4-yl-N-{4-[(2-piperidin-1-ylpyrimidin-4-yl)oxy]-1-naphthyl}benzamide]"
0.0152 µM,0.225 µM,108 to 110 °C,"CN(C)C1CCN(c2nccc(Oc3ccc(NC(=O)c4cc(F)cc(N5CCCCC5)c4)c4ccccc34)n2)C1 (stereo not drawn) [Compound B420, N-[4-({2-[3-(Dimethylamino)pyrrolidin-1-yl]pyrimidin-4-yl}oxy)-1-naphthyl]-3-fluoro-5-piperidin-1-ylbenzamide]"
0.0146 µM,0.655 µM,93 to 95 °C,"O=C(Nc1ccc(Oc2ccnc(N3CCCC(O)C3)n2)c2ccccc12)c1cc(F)cc(N2CCCCC2)c1 (stereo not drawn) [Compound B402, 3-Fluoro-N-(4-{[2-(3-hydroxypiperidin-1-yl)pyrimidin-4-yl]oxy}-1-naphthyl)-5-piperidin-1-ylbenzamide]"
0.0139 µM,0.0124 µM,121 to 123 °C,"O=C(Nc1ccc(Oc2ccnc(NCc3ccccc3)n2)c2ccccc12)c1cc(F)cc(N2CCOCC2)c1 [Compound B249, N-(4-{[2-(Benzylamino)pyrimidin-4-yl]oxy}-1-naphthyl)-3-fluoro-5-morpholin-4-ylbenzamide]"
0.0133 µM,0.0796 µM,185 to 186 °C,"CCN1CCN(c2nccc(Oc3ccc(NC(=O)c4cc(F)cc(N5CCOCC5)c4)c4ccccc34)n2)CC1 [Compound B345, N-(4-{[2-(4-Ethylpiperazin-1-yl)pyrimidin-4-yl]oxy}-1-naphthyl)-3-fluoro-5-morpholin-4-ylbenzamide]"
0.0105 µM,0.59 µM,122 to 124 °C,"CCOC(=O)N1CCC(Nc2nccc(Oc3ccc(NC(=O)c4cc(F)cc(N5CCOCC5)c4)c4ccccc34)n2)CC1 [Compound B341, Ethyl-4-{[4-({4-[(3-fluoro-5-morpholin-4-ylbenzoyl)amino]-1-naphthyl}oxy)pyrimidin-2-yl]amino}piperidine-1-carboxylate]"
0.0078 µM,0.0487 µM,128 to 129 °C,"CN1CCC(Nc2nccc(Oc3ccc(NC(=O)c4cc(F)cc(N5CCOCC5)c4)c4ccccc34)n2)CC1 [Compound B362, 3-Fluoro-N-[4-({2-[(1-methylpiperidin-4-yl)amino]pyrimidin-4-yl}oxy)-1-naphthyl]-5-morpholin-4-ylbenzamide]"
0.005 µM,0.252 µM,106 to 108 °C,"O=C(Nc1ccc(Oc2ccnc(N3CCC(O)CC3)n2)c2ccccc12)c1cc(F)cc(N2CCOCC2)c1 [Compound B332, 3-Fluoro-N-(4-{[2-(4-hydroxypiperidin-1-yl)pyrimidin-4-yl]oxy}-1-naphthyl)-5-morpholin-4-ylbenzamide]"
0.0037 µM,0.237 µM,110 to 112 °C,"O=C(Nc1ccc(Oc2ccnc(NC3CCC3)n2)c2ccccc12)c1cc(F)cc(N2CCOCC2)c1 [Compound B331, N-(4-{[2-(Cyclobutylamino)pyrimidin-4-yl]oxy}-1-naphthyl)-3-fluoro-5-morpholin-4-ylbenzamide]"
0.0029 µM,0.0333 µM,122 to 124 °C,"O=C(Nc1ccc(Oc2ccnc(NCC3OCCO3)n2)c2ccccc12)c1cc(F)cc(N2CCOCC2)c1 [Compound B369, N-[4-({2-[(1,3-dioxolan-2-ylmethyl)amino]pyrimidin-4-yl}oxy)-1-naphthyl]-3-fluoro-5-morpholin-4-ylbenzamide]"
0.0025 µM,0.0058 µM,116 to 117 °C,"O=C(Nc1ccc(Oc2ccnc(NCC3CC3)n2)c2ccccc12)c1cc(F)cc(N2CCOCC2)c1 [Compound B336, N-[4-({2-[(Cyclopropylmethyl)amino]pyrimidin-4-yl}oxy)-1-naphthyl]-3-fluoro-5-morpholin-4-ylbenzamide]"

# Reference: patent publication US7829560B2, “1,4-disubstituted naphthalenes as inhibitors of P38 MAP kinase” (Arqule, Inc., priority 2004, dated 2010)
